{"source": "patent US20090246248A1", "about": "“COATING COMPOSITIONS HAVING IMPROVED PERFORMANCE” (priority 2008, published 2009)", "key": {"[1]": {"experiment": "Critical micelle concentration (methyl orange assay)", "type": "physicochemical", "conditions": "pH 7 PBS, A484", "description": "Formation of a composition of the invention, and evidence of macromolecular network formation, may be monitored or quantified by any means known in the art. In this example, macromolecular formation was detected using a standard assay for determining critical micelle concentration (“CMC”). In this assay, a solution containing the composition of the invention (in a range of concentrations in pH 7 phosphate buffered saline (“PBS”)) was mixed with a solution of methyl orange (0.04 mM in PBS), and the absorbance of the mixture was measured at 484 nm (A484). CMC is the concentration at which a sharp decrease in absorbance at A484 is observed, a change in the optical properties of methyl orange when trapped in a hydrophobic phase, such as caused by self-association as a macromolecular network (Table 7, “CMC”). Also included in this assay were an assay control peptide having an amino acid sequence of SEQ ID NO:122 (Table 7, “Control”), and compound 119 (a PEGylated peptide, the peptide having an amino acid sequence of SEQ ID NO:122, as described in more detail in Example 6 herein)."}, "[2]": {"type": "binding", "conditions": "18 hour incubation in 10% BSA+10 mM guanidinium chloride; FIG. 1", "excerpt": "In this example, illustrated are unexpected beneficial properties of the composition of the invention, including but not limited to, one or more improved biophysical properties. Such one or more unexpected beneficial properties of a composition of the invention may comprise an increase in stability. An increase in stability may comprise any one or more of resistance to chemical denaturation, resistance to proteolytic degradation, improved retention to a substrate (e.g., resistance to being competed off a substrate to which it is bound, such as by proteins or other biomolecules found in body tissues). Thus, to ascertain a beneficial property of a composition of the invention, it is compared to the properties of a component of the composition-namely, a substrate-binding peptide by itself (e.g., without fatty acid covalently coupled thereto). An assay was developed that, from our direct comparisons (see, e.g., discussion of FIG. 2 below, and Example 7 herein), mimicked the effect of incubation of substrate-binding peptide with human plasma on stability of binding of a substrate-binding peptide to its substrate. The assay utilized incubations in the presence of 10% bovine serum album (BSA) with 10 mM guanidinium chloride. The high BSA concentration mimics the elevated albumin content of human plasma, and the guanidinium chloride is used to compete with any charged interactions involved in binding of the substrate-binding peptide to its substrate.\nIn this assay, two immunoassay plates were prepared for a “side-by-side” comparison of binding of a test sample (substrate-binding peptide or composition of the invention) to its substrate with or without the presence of 10% BSA with 10 mM guanidinium chloride. The wells of each 96-well polypropylene plate were incubated with 350 μl BSA 1% in PBS for 30 minutes at 20° C. with 500 rpm shaking. To each well was added one acetone-cleaned 3/32″ 316LVM stainless steel bead, followed by addition of dilutions in PBS of the test sample in a range of concentrations starting from 10 μM. Final volume in each well was 200 μl. The plates were incubated for 1 hour at 20° C. with 500 rpm shaking to allow for the binding to occur. The beads were washed 3 times with 250 μl PBS using a plate washer. […]\nIn the immunoassay for detecting binding without the presence of 10% BSA with 10 mM guanidinium chloride, added to each well was 200 μl of streptavidin AP (AP is alkaline phosphatase) at 1/200 in TBS+1% BSA. […] When color has developed, each well was read at OD405 nm in endpoint mode using a plate reader. […] When color has developed, the wells were read at OD405 nm in endpoint mode using a plate reader. […]"}, "[3]": {"experiment": "Stent flow model, retention of radiolabelled composition on coated stent", "type": "binding", "conditions": "5 ml/min, 37° C.", "procedure": "In this example, an in vitro model for in vivo stability on a medical device comprising a stent was performed. The stent flow model included a “circulatory system” comprising a peristaltic pump and clear silicone tubing into which is placed a stent (8 mm, stainless steel) coated with a composition according to the invention. Coating of the stents was accomplished by incubating the stents with radiolabelled composition 132 (specific activity 2,400 cpm/pmole at 20 μM in PBS) for 1 hour at 20° C., followed by extensive washing with buffer. […] In another variation of the stent flow model, 10% BSA+10 mM guanidinium chloride was circulated through the circulatory system at a flow rate of 5 ml/min for 18 hours at 37° C. After circulation in the respective variations of the stent flow model, the coated stents were then counted for radioactivity. To serve as an assay “control”, some coated stents were not placed in the stent flow model, but rather counted for radioactive counts to provide a reference from which percent retention could be calculated for those coated stents included in the stent flow model."}, "[4]": {"experiment": "Binding assay for glycopeptide antibiotic (biotinylated vancomycin, immobilized peptide)", "conditions": "peptide immobilized on streptavidin plate", "description": "A typical binding assay for glycopeptide antibiotic was performed according to the following procedure. Briefly, synthetic peptides comprising an amino acid sequence to be characterized for binding were biotinylated to facilitate immobilization on streptavidin-coated 96-well plates. The microtiter plates were coated with streptavidin by adding 50 μl of a 10 μg/ml streptavidin solution in 0.1 M NaHCO3, and incubating the plates for at least 3 hours. The plate wells were blocked by adding 150 μl of a 1% BSA solution in 0.1 NaHCO3 with incubation for at least 2 hours, and the plates were stored at 4° C. until needed. Before use, the streptavidin plates were washed extensively in buffer-T. Added per well was peptide (100 μl 0.1 μM peptide in buffer-T), and then incubated for 30 minutes at room temperature with shaking. 200 μl of 0.5 mM biotin in buffer-T was added to block the remaining streptavidin sites, and plates were incubated for 15 minutes at room temperature. Plates were then washed with buffer-T to remove the excess biotin and peptide. Serial dilutions of biotinylated glycopeptide antibiotic in buffer-T were added (100 μl) to each well, representing a range of concentrations between 100 μM and […]. Plates were incubated for 30 minutes at room temperature with shaking prior to washing several times with buffer-T. Glycopeptide antibiotic was then detected by adding 100 μl of a diluted streptavidin-alkaline phosphatase conjugate to each well and incubated at room temperature for 30 minutes. Excess conjugate was removed by repeated washes with buffer-T, and the amount of alkaline phosphatase remaining in the well was detected using a pNPP (para-nitrophenylphosphate) colorimetric enzymatic assay. The relative amount of glycopeptide antibiotic captured by the peptides was determined by measuring the absorbance at 405 nm of the colored product of the alkaline phosphatase reaction. The EC50 was determined for each peptide relative to the binding affinity for the glycopeptide antibiotic used in the assay, as shown in Table 8 (with vancomycin as a representative glycopeptide antibiotic)."}, "[5]": {"test_system": "Staphylococcus aureus strain MZ100", "experiment": "Tibia pin assay (coated titanium pins with vancomycin, bacterial culture)", "type": "cell-based", "set-up": "key: —: no cfus; too many cfus to count, as they converge into one spot", "conditions": "3 hours 37° C.", "excerpt": "In this assay, titanium pins were used as a model for tibia pins. Briefly, sterile pins were first coated with biofunctional composition (“SEQ ID NO:124-linker-SEQ ID NO:122”) comprising a substrate-binding peptide having binding specificity for vancomycin (“SEQ ID NO:124”) linked to a substrate-binding peptide having binding specificity for metal (“SEQ ID NO:122”), or a composition of the invention formed from compound comprising the biofunctional composition covalently coupled to fatty acid. The respective coatings also include vancomycin bound thereto. The coated pins were then placed in a silicone tube containing liquid bacterial growth medium and inoculated with bacteria. After incubation, the pins were removed, and then the liquid growth medium was serially diluted. The serial dilutions were inoculated onto bacterial culture plates, the plates were incubated, and counted on the plates were bacterial colonies.\nIn this assay, test samples (biofunctional composition (Table 6, “BC”) or compositions 133, 134, 135, 136 139) each were used to coat a pin by incubating the test sample (in a range of from about 0.8 mM to about 1 mM) with 2.5 μl of a 10 mM vancomycin solution and PBS to a final volume of 250 μl in a microtube (3 pins per tube) for 60 minutes at room temperature with occasional agitation. In a piece of silicone tubing (1.5 mm inner diameter, 50 mm long), added is tryptic soy broth+0.2% glucose, the coated pin, and 103 colony forming units (cfu) of Staphylococcus aureus strain MZ100 in either a 20 μl inoculum, 40 μl inoculum, or 60 μl inoculum. The tubing is clamped closed, and the tubing is incubated for 37° C. for 3 hours. After 3 hours, serial dilutions (1:10, 1:100, 1:1000) were made of the culture media from each tubing, and 10 μl of the undiluted culture medium and of each dilution were spotted onto the bacterial culture plate. The bacterial culture plate was incubated overnight at 37° C., and then the cfus were counted. The results, a composite of different assay runs, are shown in Table 6 (“−” means no cfus; “many” means too many cfus to count, as they converge into one spot; “NT” means not tested)."}}, "note": "Square brackets hold non-standard residues; d marks the D form. Ends that are not written are not given here. Aun = NCCCCCCCCCCC(=O)O", "data": [{"substance": "AUD-AUD-K-AUD-AUD-AUD-AUD-SEQ ID NO: 122 ([Aun][Aun]K[Aun][Aun][Aun][Aun]SSHRTNHKKNNPKKKNKTRGSSGK) [Compound 123]", "values": [{"measurement": "CMC", "setting": "[1]", "value": 0.04, "unit": "µM"}, {"measurement": "retention of binding compared to substrate-binding peptide alone (SEQ ID NO:122)", "setting": "[2]", "value": "significantly improved retention"}]}, {"substance": "Ac-Y-AUD-AUD-AUD-AUD-AUD-AUD-SEQ ID NO: 122 (Ac-Y[Aun][Aun][Aun][Aun][Aun][Aun]SSHRTNHKKNNPKKKNKTRGSSGK) [Compound 132]", "values": [{"measurement": "CMC", "setting": "[1]", "value": 0.123, "unit": "µM"}, {"measurement": "composition remained bound to the coated stents", "setting": "[3]; 10% BSA+10 mM guanidinium chloride, 18 hours", "value": "over 90%"}, {"measurement": "composition remained bound to the coated stents", "setting": "[3]; human plasma, 7 days", "value": "over 90%"}, {"measurement": "EC50", "setting": "[4]", "value": 0.06, "unit": "µM"}]}, {"substance": "SSHRTNHKKNNPKKKNKTRGSSGK [Compound 130, AUD-AUD-AUD-AUD-AUD-AUD-SEQ ID NO: 122]", "values": [{"measurement": "CMC", "setting": "[1]", "value": 0.041, "unit": "µM"}, {"measurement": "EC50", "setting": "[4]", "value": 10, "unit": "µM"}]}, {"substance": "SSHRTNHKKNNPKKKNKTRGSSGK [Compound 131, AUD-AUD-AUD-AUD-AUD-AUD-AUD-AUD-SEQ ID NO: 122]", "values": [{"measurement": "CMC", "setting": "[1]", "value": 0.37, "unit": "µM"}, {"measurement": "EC50", "setting": "[4]", "value": 0.1, "unit": "µM"}]}, {"substance": "SSSCLIDMYGVCHNFDGAYDSSRG [Compound 134, AUD-AUD-AUD-AUD-SEQ ID NO: 124-linker-SEQ ID NO: 122]", "values": [{"measurement": "cfu 1:10", "setting": "[5]; Volume 20 μl inoculum", "value": "—"}, {"measurement": "cfu 1:100", "setting": "[5]; Volume 20 μl inoculum", "value": "—"}, {"measurement": "cfu 1:1000", "setting": "[5]; Volume 20 μl inoculum", "value": "—"}, {"measurement": "cfu undiluted", "setting": "[5]; Volume 20 μl inoculum", "value": "—"}, {"measurement": "cfu 1:10", "setting": "[5]; Volume 40 μl inoculum", "value": 6, "unit": "cfu"}, {"measurement": "cfu 1:100", "setting": "[5]; Volume 40 μl inoculum", "value": 1, "unit": "cfu"}, {"measurement": "cfu 1:1000", "setting": "[5]; Volume 40 μl inoculum", "value": "—"}, {"measurement": "cfu undiluted", "setting": "[5]; Volume 40 μl inoculum", "value": "many"}, {"measurement": "cfu 1:10", "setting": "[5]; Volume 60 μl inoculum", "value": 17, "unit": "cfu"}, {"measurement": "cfu 1:100", "setting": "[5]; Volume 60 μl inoculum", "value": 5, "unit": "cfu"}, {"measurement": "cfu 1:1000", "setting": "[5]; Volume 60 μl inoculum", "value": "—"}, {"measurement": "cfu undiluted", "setting": "[5]; Volume 60 μl inoculum", "value": "many"}, {"measurement": "EC50", "setting": "[4]", "value": 10, "unit": "µM"}]}]}
